Experimental data as given in EP3290438A1, “FOOD ALLERGEN EXTRACTS AND METHODS OF PRODUCING AND USING THE SAME” (CONSEJO SUPERIOR DE INVESTIGACIONES CIENTIFICAS, priority 2016, dated 2018).

Columns and labels:
[1] = test system: IgE in sera from fish-allergic patients; experiment: Peptide array (SPOT) immunoassay, IgE binding; set-up: species or system human; details: sera from ten fish-allergic patients (groups S-I, S-II), 1/10 dilution; 10 nmol/spot
Excerpt: It was first characterized the sequence elements to address how amyloid formation contributes to the IgE reactivity of Gad m 1. A set of 12-mer overlapping synthetic peptides with an offset of 2 that correspond to the sequence of Gad m 1 was used in an array-based immunoassay (Fig. 6).
This peptide length and surface density (10 nmol/spot) ensures the preservation of amyloid formation (which is conventionally limited to 6 residues), and differs from previous microarrays assays using a 15-mer with an offset of 3 (Perez-Gordo, M. et al. Mol Nutr Food Res 57, 1283-1290, (2013)).
The peptide membranes were assayed using the sera from ten patients who are allergic to fish (Figs. 1, 2). The IgE binding intensity was variable among the tested sera; however, it was possible to identify four major binding regions (I-IV) and two major groups of sera (S-I: S2, S3, S4, S7 and S8; S-II: S1, S5, S6, S12 and S13). […] Of these four regions, region I overlaps the sequence predicted as the cross-β sheet forming (adhesive) segment in helix A, whereas regions III and IV overlap the immunologically reactive sites located on the junctions between the AB and CD domains (residues 33-44) and between the CD and EF domains (residues 65-74) (Martinez, J. et al. Swiss Med Wkly 145, (2015)). Nevertheless, the reactivity of the Ca^2+-binding loop of the EF domain (residues 88-96) and of the C-terminal (residues 95-109) regions was not detected by these sera, as probed by both IgE and IgG4 binding (Fig. 1d) (Perez-Gordo, M. et al. Int Arch Allergy Imm 157, 31-40, (2012)). It merits comment that IgG4 reactivity, which is considered as a protective response in allergy, is largely detected in region IV for both sera groups (Perez-Gordo, M. et al. Int Arch Allergy Imm 157, 31-40, (2012)).
Peptide arrays (SPOT). Dodecapeptides spanning the whole sequence of Gad m 1, with an overlap of ten residues, were solid-phase synthesized and immobilized (≈10 nmol per spot) on an Amino-PEG500-UC540 sheet at the National Centre for Biotechnology (CNB-CSIC, Madrid). Before use, the membranes were rinsed with ethanol, washed three times with TBS (25 mM Tris-HCl, pH 7.5, containing 137 mM NaCl and 2.7 mM KCI), and incubated in TBS containing 1% BSA (w/v) and 2 mM EDTA for 1 h. The membranes were then probed for 2 h with sera from patients who are allergic to fish (1/10 dilution) and the anti-amyloid fibril OC antibody (AB2286 Merck Millipore, 1/2000 dilution), prepared in TBST (TBS containing 0.05% Tween-20) supplemented with 0.5% BSA (w/v) or with rGad m 1 chains (2.5 µM) in TBS. After extensive washes with TBST, a 30 min incubation with either horseradish peroxidase-labeled anti-human IgE (Abcam ab99806, 1/2000 dilution), anti-human IgG4 (Abcam ab99823, 1/4000 dilution), goat anti-rabbit IgG (Sigma, 1/5000 dilution) or anti-6X His tag® antibody (Abcam ab18184, dilution 1/1000) was performed. The signal was developed with the ECL-Western-blotting reagent (Bio-Rad) and detected with a ChemiDoc XRS instrument (Martinez, J. et al. Swiss Med Wkly 145, (2015)). When required, the membranes were regenerated by sequential incubation with TBS containing 8M urea, 1% SDS and 0.5% β-mercaptoethanol for 30 min at 55 °C and three times with acetic acid/ethanol/Milli-Q water (10:50:40). Regions were considered major allergenic epitopes when at least two overlapping peptides were involved. […]

[2] = Peptide array membranes probed with thioflavin T (ThT); type: physicochemical
Experimental: The presence of amyloid folds was then assayed using the conformation-selective OC antibody, which detects oligomer and fibril assemblies produced during the protein fibrillization process and the amyloid probe thioflavin T (ThT) (Kayed, R. et al. Molecular neurodegeneration 2, 18, (2007)). […] Of these regions, peptides 2 and 41 overlap the adhesive segments in helix A and E, predicted by the ZipperDB algorithm (Goldschmidt, L., et al. Proceedings of the National Academy of Sciences of the United States of America 107, 3487-3492, (2010)), peptides 12-16 and 34 lie over the IgE-binding regions III and IV, peptide 24 contains part of the Ca^2+-binding site of domain CD, and peptide 49 corresponds to a previously described epitope groups (Perez-Gordo, M. et al. Mol Nutr Food Res 57, 1283-1290, (2013)) (Fig. 2 and Fig. 7). […] It must be noted that peptides containing the helix C sequence, which was predicted to be an adhesive segment, were not detected by either the OC or ThT binding assays.

[3] = biological target: T1, Gad m 1 peptide 12 (12-mer overlapping synthetic peptide) (Atlantic cod); experiment: SPOT peptide array incubated with rGad m 1 chains (2.5 µM), anti-6XHis detection
T1 construct: Immobilized on the SPOT membrane, about 10 nmol per spot
T1 peptide: GSFDHKAFFTKV

[4] = biological target: T2, Gad m 1 peptide 13 (12-mer overlapping synthetic peptide) (Atlantic cod); experiment: as above
T2 construct: Immobilized on the SPOT membrane, about 10 nmol per spot
T2 peptide: FDHKAFFTKVGL

[5] = biological target: T3, Gad m 1 peptide 14 (12-mer overlapping synthetic peptide) (Atlantic cod); experiment: as above
T3 construct: Immobilized on the SPOT membrane, about 10 nmol per spot
T3 peptide: HKAFFTKVGLAA

[6] = biological target: T4, Gad m 1 peptide 15 (12-mer overlapping synthetic peptide) (Atlantic cod); experiment: as above
T4 construct: Immobilized on the SPOT membrane, about 10 nmol per spot
T4 peptide: AFFTKVGLAAKS

Molecule: 6: 12-mer overlapping synthetic peptide of the Gad m 1 sequence, SEQ ID NO: 6 (DITAALAACKAE) [compound 6]
- IgE binding [1]: only recognized by the sera group S-II

Molecule: 1: 12-mer overlapping synthetic peptide of the Gad m 1 sequence, SEQ ID NO: 1 (MAFAGILNDADI) [compound 1]
- IgE binding [1]: only recognized by the sera group S-II

Molecule: 18: 12-mer overlapping synthetic peptide of the Gad m 1 sequence, SEQ ID NO: 18 (GLAAKSSADIKK) [compound 18]
- IgE binding [1]: variable recognition by the distinct sera

Molecule: 7: 12-mer overlapping synthetic peptide of the Gad m 1 sequence, SEQ ID NO: 7 (TAALAACKAEGS) [compound 7]
- IgE binding [1]: only recognized by the sera group S-II

Molecule: 19: 12-mer overlapping synthetic peptide of the Gad m 1 sequence, SEQ ID NO: 19 (AAKSSADIKKVF) [compound 19]
- IgE binding [1]: variable recognition by the distinct sera

Molecule: 12: 12-mer overlapping synthetic peptide of the Gad m 1 sequence, SEQ ID NO: 12 (GSFDHKAFFTKV) [compound 12]
- ThT fluorescence emission [2]: increased fluorescence emission

B1: rGad m 1 wt, amyloid fibrils (formed in 5 mM EDTA) (other)
chain: AFAGILNDADITAALAACKAEGSFDHKAFFTKVGLAAKSSADIKKVFEIIDQDKSDFVEEDELKLFLQNFSAGARALSDAETKVFLKAGDSDGDGKIGVDEFGAMIKA
notes: Same chain as the wt monomer, in the amyloid state; also called wt-F; rGad m 1 amyloids; not shown: N-terminal histidine tag of the pET15b construct
- binding result [3]: binds
- binding result [4]: binds
- binding result [5]: binds
- binding result [6]: binds
